Data on 4 molecules can be found in patent US11406707B2, “STAT3 phosphorylation during graft-versus-host disease” (H. LEE MOFFITT CANCER CENTER AND RESEARCH INSTITUTE, INC., priority 2014, dated 2022).

One series has as its system TH17 responses. Particulars: neutralization of IL-6, literature; cited from earlier work.
For series [1] the following is noted: literature; cited from earlier work.
Another series relates to STAT5. Kind of series: STAT5 phosphorylation in CD4+ T cells of 5 day allo-MLRs without exogenous cytokine. The class given is cell-based, human. Particulars: CAS 285986-31-4 1 μM. The procedure:
(§1) No exogenous cytokine was added. DC-allosensitized T cells were harvested on day 5. […] The ratio of CD4^+, pSTAT5^Bright to CD4^+, pSTAT3^+ T cells was calculated by percentage of phosphorylation.

Series [2] deals with DC-allosensitized T-cell proliferation. Kind of series: allo-MLR T-cell proliferation (colorimetric MTS assay, stimulation index). Type of series: cell-based, human. The following applies: CAS 285986-31-4 titration 0-100 μM, day 4. The procedure:
Allo-MLRs consisted of T cells stimulated by cytokine-mature moDCs (DC:T-cell ratio 1:30, 1×10^5 T cells per 100 μl medium in a 96-well plate, 37° C.). […] The allogeneic moDC stimulators were matured with a cytokine cocktail and terminally differentiated, eliminating the need for irradiation [Betts, B. C., et al. (2011) Blood 118, 5330-5339]. T-cell proliferation was quantified by a colorimetric assay (CellTiter 96 AQueous One Solution Cell Proliferation Assay [MTS]; Promega, Madison, Wis.) on day 5, per the manufacturer's instructions, with absorbance quantified at 490 nm [Betts, B. C., et al. (2011) Blood 118, 5330-5339]. The stimulation index was calculated by dividing the OD of the allo-MLR by the OD of T cells alone. PHA-stimulated T cells served as a positive control. Identical allo-MLRs were cultured with CAS 285986-31-4, to determine the dose-response effect of STAT5 inhibition on allostimulated T-cell growth. For these initial experiments, the cultures were analyzed on day 4 because of the early rapid T-cell proliferation among the STAT5 inhibitor-treated wells. The stimulation index was determined as described.

The next series has as its system Foxp3 TSDR. The experiment in a line: iTreg Foxp3 demethylation assay. The class given is cell-based, human. Particulars: CAS 285986-31-4 1 μM. From the text: iTreg Foxp3 demethylation assay. […] (2013) J. Immunol. 190, 3180-3188; Miyao, T., et al. (2012) Immunity 36, 262-275]. The degree of Foxp3 TSDR demethylation among iTregs from DMSO-treated allo-MLRs, purified nTregs, and Tconvs served as the controls [[…]., et al. (2013) Blood 122(13):2251-61]. For these experiments, iTregs and nTregs were sorted to select the CD4^+ CD25^+ CD127^- population. PCR products were amplified by using methylation or demethylation specific TSDR forward and reverse primers from bisulphate-treated genomic DNA of sorted natural Tregs. DNA fragments were cloned into a pCR2.1-Topo vector (Life Technologies, Grand Island, N.Y., USA) and verified by DNA sequencing. The following TSDR primers and probes were used for PCR: methylation forward [NT] ID NO:1), reverse [NT] ID NO:2), and hydrolysis probe [NT] (SEQ ID NO:3); and demethylation forward [NT] ID NO:4), reverse [NT] ID NO:5), and hydrolysis probe [NT] ID NO:6). Standards were diluted at concentrations ranging from 2^7 to 2^3 plasmid copies of each methylation or demethylation TSDR. Genomic DNA was isolated by using the DNeasy Blood and Tissue kit (Qiagen, Valencia, Calif., USA) from sorted natural or expanded iTregs. Genomic DNA (200-500 ng) was treated with bisulfite from the EZ DNA Methylation-Gold Kit (Zymo Research, Irvine, Calif., USA). […]

The next series deals with T cells. Kind of series: T-cell viability by Live/Dead staining in treated allo-MLRs. The class given is cell-based, human. Particulars: CAS 285986-31-4 1 μM. The method, then:
Fluorochrome-conjugated mouse anti-human mAbs included anti-CD3, -CD4, -CD8, -CD25, -CD45RO, -CD107a, -CD127, -Foxp3, -pSTAT3/pY705, -pSTAT5/pY694, -IFN-, and -IL-17A (BD Biosciences, San Jose, Calif. USA; eBioscience; San Diego, Calif., USA; Invitrogen; Carlsbad, Calif., USA). Viability was assessed by Live/Dead staining (Invitrogen). Live events were acquired on FACSCalibur or LSRII (BD Biosciences) flow cytometers (FlowJo software, ver. 7.6.4; TreeStar, Ashland, Oreg., USA). Gates were defined by appropriate isotype controls. Naive T-cell sorting was performed on the FACSVantageDiVa (BD Biosciences). Where indicated, CD4^+ T cells were purified by magnetic-bead negative selection (Miltenyi Biotec, Auburn, Calif., USA).

The target in another series is T1, STAT3 (Homo sapiens, UniProt P40763).
T1 construct: endogenous in cells; host or cells: primary human T cells from healthy-donor PBMC, allostimulated by monocyte-derived dendritic cells
The experiment in a line: STAT3 phosphorylation in CD4+ T cells of 5 day allo-MLRs without exogenous cytokine. Type of series: cell-based. Particulars: CAS 285986-31-4 1 μM, 5 day allo-MLR. The procedure: as §1

A further series relates to iTregs and Tconvs. The experiment in a line: iTreg and Tconv expansion from DC-allostimulated naive CD4+ T cells. Particulars: CAS 285986-31-4 1 μM. Type of series: cell-based, human. The method, then:
To evaluate iTreg development, naive CD4^+ cells were isolated from nylon-wool-eluted T cells by magnetic-bead selection (Miltenyi Biotec), based on the positive expression of CD4 and lack of CD45RO, CD25, or both. In addition, CD127 staining of the naive CD4^+ cells was performed after the purification, to ensure depletion of natural Tregs from the cell product. Negligible amounts of CD127^-, CD25^Bright nTregs were observed after magnetic-bead purification. […] The T cells were harvested and surface stained on day 5 for CD3, -4, -25, and -127, followed by fixation and permeabilization (eBioscience), and then intracellular staining for Foxp3 [Liu, W., et al. (2006) J. Exp. Med. 203, 1701-1711; […]., et al. (2006) J. Exp. Med. 203, 1693-1700]. Tregs were characterized by gating on the live cells expressing surface CD3^+, CD4^+, and absence of CD127, followed by expression of Foxp3 and CD25^bright [Liu, W., et al. (2006) J. Exp. Med. 203, 1701-1711; […]., et al. (2006) J. Exp. Med. 203, 1693-1700]. The absolute number of iTregs and Tconv (CD4^+ CD25^-) cells was obtained by timed acquisition. The ratio of iTreg:Tconv was calculated based on the absolute number of each T-cell population.

For a further series, the system named is primed T-cells. Kind of series: Secondary alloMLR (3-day restimulation of primed T-cells) proliferation. The class given is cell-based, human. Particulars: Homo sapiens, T-cell; rapamycin 10 ng/ml; read-out: inhibition of proliferation in comparison to DMSO. From the text: Bulk donor T-cells were allostimulated with cytokine-matured, allogeneic moDCs at a DC:T-cell ratio of 1:30 as previously described (Florida Blood Services) [Betts, B C, et al. (2011) Blood 118:5330-9; Betts, B C, et al. […] Betts, B C, et al. (2011) Blood 118:5340-3]. […] Lower doses of each drug were used in these experiments to mimic expected physiologic concentrations [Siddiquee, K, et al. (2007) Proceedings of the National Academy of Sciences of the United States of America 104:7391-6; Zeiser, R, et al. (2008) Blood 111:453-62], and to better detect potential synergistic activity with the combination of rapamycin and S3I-201. After 5 days of culture at […]-cell proliferation was measured by a colorimetric assay per the manufacturer's instructions (CellTiter 96 Aqueous One Solution Cell Proliferation Assay [MTS]; Promega, Madison, Wis. USA) [Betts, B C, et al. (2011) Blood 118:5330-9; Betts, B C, et al. […] Betts, B C, et al. (2011) Blood 118:5340-3]. Absorbance/optical density (OD) was analyzed at 490 nm. Secondary alloMLR: […] Following priming, the T-cells were then rested and re-cultured with fresh first-party moDCs (DC:T-cell ratio of 1:30). […] After 3 days, T-cell proliferation was measured by a colorimetric assay as described (Promega). T-cells alone and PHA-stimulated T-cells served as negative and positive controls, respectively, for both the primary and secondary alloMLRs.

T1 sequence (P40763 whole entry): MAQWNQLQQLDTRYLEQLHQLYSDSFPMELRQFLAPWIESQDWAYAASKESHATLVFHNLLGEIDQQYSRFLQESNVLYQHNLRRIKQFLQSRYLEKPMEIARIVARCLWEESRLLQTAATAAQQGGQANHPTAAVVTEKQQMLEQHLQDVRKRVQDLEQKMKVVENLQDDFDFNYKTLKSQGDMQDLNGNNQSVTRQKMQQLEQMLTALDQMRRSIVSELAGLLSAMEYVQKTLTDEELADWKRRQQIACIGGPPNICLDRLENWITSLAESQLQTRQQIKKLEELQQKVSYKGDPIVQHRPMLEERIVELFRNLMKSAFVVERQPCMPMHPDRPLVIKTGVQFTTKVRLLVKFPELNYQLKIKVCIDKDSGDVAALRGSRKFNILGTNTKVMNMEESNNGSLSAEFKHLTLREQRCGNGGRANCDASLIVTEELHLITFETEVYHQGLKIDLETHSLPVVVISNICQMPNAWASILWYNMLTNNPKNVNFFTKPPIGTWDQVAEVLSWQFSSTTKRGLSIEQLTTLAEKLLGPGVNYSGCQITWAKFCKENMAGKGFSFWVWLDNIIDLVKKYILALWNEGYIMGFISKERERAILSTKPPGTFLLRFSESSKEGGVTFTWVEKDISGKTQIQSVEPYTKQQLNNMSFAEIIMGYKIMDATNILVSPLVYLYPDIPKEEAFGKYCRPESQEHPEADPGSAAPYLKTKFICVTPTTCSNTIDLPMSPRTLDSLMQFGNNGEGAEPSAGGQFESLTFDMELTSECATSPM

On to “tocilizumab: humanised IL-6 receptor-inhibiting monoclonal antibody”, for which the “reducing TH17 responses or enhancing Treg development” value in the series with TH17 responses is given as “insufficient”.

As for “ustekinumab: monoclonal antibody targeting the p40-cytokines”, the “efficacy in refractory GVHD” value in [1] was “demonstrated efficacy”.

With `O=C(N/N=C/c1coc2ccccc2c1=O)c1cccnc1` [CAS 285986-31-4], the “ratio of CD4+, pSTAT5Bright to CD4+, pSTAT3+ T cells” value in the series with STAT5 was “significantly decreased”. Also, in the series on STAT5 (5 day allo-MLR), the “CD4+, pSTAT5Bright population” value is on record as “selectively impaired” and the “overall geometric MFI of CD4+ STAT5 phosphorylation” value is recorded as “did not affect”. Further, in series [2], the “concentration achieving maximum allostimulated T-cell growth” value worked out at 1 µM. In the series with Foxp3 TSDR, the “iTreg Foxp3 demethylation” value is reported as “significant reduction”. Besides, the “toxic effects by viability staining” value with T cells is “no toxic effects”. Moreover, the STAT3 signaling result on STAT3 was “maintained intact”. In the series on iTregs and Tconvs, the “allostimulated iTreg expansion” value is listed as “significantly decreased” and the “iTreg:Tconv ratio compared with DMSO or STAT3 inhibitor” value was “significant reduction”.

Take `CO[C@H]1C[C@@H]2CC[C@@H](C)[C@@](O)(O2)C(=O)C(=O)N2CCCC[C@H]2C(=O)O[C@H]([C@H](C)C[C@@H]2CC[C@@H](O)[C@H](OC)C2)CC(=O)[C@H](C)/C=C(\C)[C@@H](O)[C@@H](OC)C(=O)[C@H](C)C[C@H](C)/C=C/C=C/C=C/1C` [rapamycin]: the inhibition at 0.01 µg/mL in the series on primed T-cells stood at 69%.
